Several values for one entry are separate records, joined by “and”; a condition that tells them apart may be missing. Identical values can stand only once.
Assays:
Format in all cases: physicochemical
[1] = 90% particle size distribution, laser diffraction HELOS & RODOS (Test Example 2); conditions: dispersion pressure 4 bar
Procedure: A 90% particle size distribution in the production method of Reference Example 1 was determined by the following method.
In Examples 1 to 6 and Reference Example 3, the 90% particle size distribution was determined in the same manner.
A 90% particle size distribution was measured according to the following method and conditions. • Measuring instrument: laser diffraction particle size distribution measuring apparatus (HELOS & RODOS, Sympatec GmbH) • Dispersion pressure: 4 bar • Feed: 50% • Rotation: 20% • Focal length: 50 mm • Trigger condition: reference duration 2 seconds • Time Base 100 ms • Start Optical concentration ≥1.0% • Stop Optical concentration ≤1.0% • Measurement range: R2

[2] = Measurement of content ratio of compound represented by Formula (III) contained in crystal (Test Example 1); conditions: crystal as produced
Procedure: The content ratio of the compound represented by Formula (III) in the dihydrate crystal of the compound represented by Formula (I) produced in Example L was determined by the following method.
In Examples 1 to 4 and 6 and Reference Examples 1 to 2, the content ratio was determined in the same manner.
(§1) A standard sample of the compound represented by Formula (III) was prepared by the following method, • Step 1: About 25 µg of the compound represented by Formula (III) was weighed precisely, and dissolved in a mixed solution of N,N-dimethylformamide and water (9:1) to make exactly 20 mL, • Step 2: One milliliter of the solution of Step 1 was accurately taken, and a mixed solution of N,N-dimethylformamide and water (9:1) was added to make exactly 50 mL. • Step 3: Two milliliters of the solution of Step 2 was accurately taken, and a mixed solution of N,N-dimethylformamide and water (9:1) was added to make exactly 20 mL, thereby obtaining a standard solution. (Preparation of Sample Solution)
(§2) About 125 to 600 mg of a sample was weighed precisely, and dissolved by adding a mixed solution of N,N-dimethylformamide and water (9:1) to make exactly 5 mL.
(§3) An amount of the compound represented by Formula (III) was measured with a liquid chromatograph according to the following method and conditions. • Measuring instrument: UHPLC (NexeraX2, SHIMADZU) • Detector: UV • Measurement wavelength: 271 nm • Column: ACQUITY UPLC BEH SHIELD PR18, 1.7 μm (2.1×100 mm) • Column temperature: constant temperature at near 40° C. • Mobile phase A: 20 mmol/L potassium dihydrogen phosphate aqueous solution • Mobile phase B: acetonitrile for liquid chromatography • Feed of mobile phase: The mixing ratio of mobile phase A and mobile phase B was changed as shown in Table 1 to control concentration gradient.
(§4) • Flow rate: 0.3 mL/min • Injection amount 2 μL • Sample cooler temperature: 5° C. • Area measurement range: 11 minutes after injection • Needle washing solution: mixed solution of N,N-dimethylformamide and water (9:1) (Calculation Formula) Content (ppm) of compound represented by Formula(III)=MS/MT×AT/AS×1/2000×1000000 (Mathematical formula 4) • MS: Weighing amount (mg) of compound represented by Formula (III) • MT: Weighing amount (mg) of sample • AS: Peak area of compound represented by Formula (III) obtained from standard solution • AT: Peak area of compound represented by Formula (III) obtained from sample solution • 1/2000: Dilution ratio

[3] = Measurement of content ratio of compound represented by Formula (III) contained in solution; increase during crystallization operation (Test Example 3); conditions: for Increased amount of content ratio of compound represented by Formula (III) during crystallization operation: total in filtrate and crystal minus solution before crystallization; for Total amount of the content ratio of compound represented by Formula (III) contained in the filtrate after filtration and the obtained crystal: after crystallization; for Content ratio of compound represented by Formula (III) in the solution before crystallization: reaction solution / dissolved anhydrate crystal
Procedure: The content ratio of the compound represented by Formula (JII) in the solution in the production method of Example 1 was determined by the following method.
In Example 4 and Reference Examples 2 to 3, the content ratio was determined in the same manner.
as §1, with “the following method. • Step” for “the following method, • Step”, “About 25 mg of the” for “About 25 µg of the”, “exactly 20 mL. • Step” for “exactly 20 mL, • Step”, “exactly 20 ml, thereby obtaining” for “exactly 20 mL, thereby obtaining”
About 60 to 1300 mg of a sample was weighed precisely, and dissolved by adding a mixed solution of N,N-dimethylformamide and water (9:1) to make exactly 5 mL.
as §3, with “SHIELD PF18,” for “SHIELD PR18,”, “Table 2” for “Table 1”
• Flow rate: 0.3 mL/min • Injection amount: 2 μL • Sample cooler temperature: 5° C. • Area measurement range: 11 minutes after injection • Needle washing solution: mixed solution of N,N-dimethylformamide and water (9:1) (Calculation formula) Content (ppm) of compound represented by Formula(III)=MS/MT×AT/AS×1/2000×YT/YS×1000000 (Mathematical formula 3) • MS: Weighing amount (mg) of compound represented by Formula (III) • MT: Weighing amount (mag) of sample • AS: Peak area of compound represented by Formula (III) obtained from standard solution • AT: Peak area of compound represented by Formula (III) obtained from sample solution • YS: Yield (g) of compound represented by Formula (I) • YT: Total weight (g) of sample • 1/2000: Dilution ratio

[4] = Stability testing of crystal (Test Example 4); conditions: for Content ratio of compound represented by Formula (III), 1M: protect from light, double polyethylene bag with desiccant, metal can
Procedure: as §1, §2, §3, §4
The samples obtained in Example 1 and Reference Example 1 were subjected to a stability testing to evaluate the content of the compound represented by Formula (III).
The storage conditions and the packaging form of Example 1 are shown in Table 3, and the storage conditions and the packaging form of Reference Example 1 are shown in Table 4.
Samples were placed in a polyethylene bag (Suntec-LD M2206 (additive free) 100×210×0.1 mm, TOWA KAKO CO., LTD.) and tightened with Convex (CV100N, SHIBAKEISOZAI CO., LTD.). This bag was further placed in a polyethylene (Suntec-LD M2206 (additive free) 100×210×0.1 mm, TOWA KAKO CO., LTD.) bag and similarly tightened with Convex (CV100N, SHIBAKEISOZAI CO., LTD.). The above samples under the same storage conditions were put together in a metal can (3dia, a stainless steel can with an inner diameter of 16 cm and a depth of 18 cm). • Double polyethylene bag, Convex (containing desiccant), metal can:
Samples were placed in a polyethylene bag (Suntec-LD M2206 (additive free) 100×210×0.1 mm, TOWA KAKO CO., LTD.) and tightened with Convex (CV100N, SHIBAKEISOZAI CO., LTD.). This bag was further placed in a polyethylene bag (Suntec-LD M2206 (additive free) 100×210×0.1 mm, TOWA KAKO) CO., LTD.) and similarly tightened with Convex (CV100N, SHIBAKEISOZAI CO., LTD.). The samples under the same storage conditions were put together in a metal can (3dia, a stainless steel can with an inner diameter of 16 cm and a depth of 18 cm) containing silica gel (using raw materials manufactured by Fuji Silysia Chemical Ltd., contained in 1 g bag).
The content of the compound represented by Formula (III) was confirmed in the same manner as in Test Example 1.

C[C@@H](Cn1c(=O)[nH]/c(=N\c2ccc(Oc3ccccn3)cc2)n(Cc2ccc(Cl)cc2)c1=O)C(=O)O [Example 2]
90% particle size distribution [1]: 7.17 μm
Content ratio of compound represented by Formula (III) in the obtained crystal [2]: 1.0 ppm

C[C@@H](Cn1c(=O)[nH]/c(=N\c2ccc(Oc3ccccn3)cc2)n(Cc2ccc(Cl)cc2)c1=O)C(=O)O [Example 3]
90% particle size distribution [1]: 6.48 μm
Content ratio of compound represented by Formula (III) in the obtained crystal [2]: 1.5 ppm

C[C@@H](Cn1c(=O)[nH]/c(=N\c2ccc(Oc3ccccn3)cc2)n(Cc2ccc(Cl)cc2)c1=O)C(=O)O [Example 4]
Increased amount of content ratio of compound represented by Formula (III) during crystallization operation [3]: 8.7 ppm
Content ratio of compound represented by Formula (III) in the obtained crystal [2]: 1.30 ppm

C[C@@H](Cn1c(=O)[nH]/c(=N\c2ccc(Oc3ccccn3)cc2)n(Cc2ccc(Cl)cc2)c1=O)C(=O)O [Example 5]
90% particle size distribution [1]: 27.57 μm

C[C@@H](Cn1c(=O)[nH]/c(=N\c2ccc(Oc3ccccn3)cc2)n(Cc2ccc(Cl)cc2)c1=O)C(=O)O [Example 6]
90% particle size distribution [1]: 61.22 μm
Content ratio of compound represented by Formula (III) in the obtained crystal [2]: 1.0 ppm

C[C@@H](Cn1c(=O)[nH]/c(=N\c2ccc(Oc3ccccn3)cc2)n(Cc2ccc(Cl)cc2)c1=O)C(=O)O [Example L]
Content ratio of compound represented by Formula (III) in the obtained crystal [2]: not detected
Content ratio of compound represented by Formula (III) in the obtained crystal ([2]; listed as dihydrate crystal of the compound represented by Formula (I)): not contained or is below a detection limit

C[C@@H](Cn1c(=O)[nH]/c(=N\c2ccc(Oc3ccccn3)cc2)n(Cc2ccc(Cl)cc2)c1=O)C(=O)O [Reference Example 1]
90% particle size distribution [1]: 14.53 μm
Increased amount of compound represented by Formula (III) from the start of the test ([4]; 40±2° C./75±5% RH, 1 month): 12 ppm
Content ratio of compound represented by Formula (III), 3M ([4]; 40±2° C./75±5% RH, 3 months): 18 ppm
Increased amount of compound represented by Formula (III) from the start of the test ([4]; 40±2° C./75±5% RH, 3 months): 15 ppm
Content ratio of compound represented by Formula (III), 3M ([4]; 40 ± 2° C./75 ± 5% RH, 3 months, listed as Reference example 1): 18 ppm
Content ratio of compound represented by Formula (III), 1M ([4]; 40 ± 2° C./75 ± 5% RH, 1 month): 15 ppm
Content ratio of compound represented by Formula (III), 1M ([4]; 40 ± 2° C./75 ± 5% RH, 1 month, listed as Reference example 1): 15 ppm
Content ratio of compound represented by Formula (III), Initial ([4]; start of test): 3 ppm

C[C@@H](Cn1c(=O)[nH]/c(=N\c2ccc(Oc3ccccn3)cc2)n(Cc2ccc(Cl)cc2)c1=O)C(=O)O [Reference Example 2]
Total amount of the content ratio of compound represented by Formula (III) contained in the filtrate after filtration and the obtained crystal [3]: 316.7 ppm
Content ratio of compound represented by Formula (III) in the solution before crystallization [3]: 178.9 ppm
Content ratio of compound represented by Formula (III) in the obtained crystal [2]: 1.3 ppm and 1.30 ppm

C[C@@H](Cn1c(=O)[nH]/c(=N\c2ccc(Oc3ccccn3)cc2)n(Cc2ccc(Cl)cc2)c1=O)C(=O)O [Reference Example 3]
90% particle size distribution [1]: 169.84 μm
Total amount of the content ratio of compound represented by Formula (III) contained in the filtrate after filtration and the obtained crystal [3]: 252.5 ppm
Content ratio of compound represented by Formula (III) in the solution before crystallization [3]: 82.0 ppm
Increased amount of content ratio of compound represented by Formula (III) during crystallization operation [3]: 170.5 ppm
